# Laboratory results as given in article PMC13504986 (Nature, 2024).
# Experiments:
# OR1A1 = target: T1, OR1A1 (Homo sapiens, UniProt Q9P1Q5); assay: GloSensor cAMP assay, HEK293T with RTP1S; type: cell-based
# T1 sequence (Q9P1Q5 1-309): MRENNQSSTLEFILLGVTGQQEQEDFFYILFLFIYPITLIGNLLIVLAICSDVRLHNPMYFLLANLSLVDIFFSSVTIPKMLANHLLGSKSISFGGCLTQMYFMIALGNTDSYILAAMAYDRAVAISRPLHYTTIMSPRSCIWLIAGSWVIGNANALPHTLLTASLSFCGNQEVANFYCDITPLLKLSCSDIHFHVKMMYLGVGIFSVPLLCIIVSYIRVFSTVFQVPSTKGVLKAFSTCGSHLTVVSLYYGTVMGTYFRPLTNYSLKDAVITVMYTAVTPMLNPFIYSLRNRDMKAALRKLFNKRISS
# OR51E1 = target: T2, OR51E1 (Homo sapiens, UniProt Q8TCB6); assay: GloSensor cAMP assay, HEK293T; type: cell-based
# T2 sequence (Q8TCB6 2-318 limits assumed): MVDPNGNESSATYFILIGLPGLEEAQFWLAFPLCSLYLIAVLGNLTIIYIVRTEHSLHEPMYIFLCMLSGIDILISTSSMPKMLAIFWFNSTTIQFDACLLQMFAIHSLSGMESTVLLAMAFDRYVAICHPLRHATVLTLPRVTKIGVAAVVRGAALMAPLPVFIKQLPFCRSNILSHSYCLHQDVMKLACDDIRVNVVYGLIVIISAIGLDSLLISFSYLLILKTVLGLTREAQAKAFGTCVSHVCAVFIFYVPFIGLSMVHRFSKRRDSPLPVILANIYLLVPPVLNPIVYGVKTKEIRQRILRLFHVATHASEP
Compound,EC50 (OR1A1) [µM],EC50 (OR51E1) [µM]
CC(C)[C@@H]1CC[C@@H](C)C[C@H]1O [L-menthol],38.9,–
C=C(C)[C@@H]1CC=C(C)C(=O)C1 [R-carvone],0.513,–
CCCCC(=O)O [pentanoate],–,34.7
